Measurements: ChEMBL document CHEMBL6182949 (J Med Chem, 2025)
The source made the active and inactive calls. The rule behind the calls is not given here.

Assays:
[1] = molecular target: T1, Protein cereblon/Interleukin-1 receptor-associated kinase 4 (Homo sapiens, UniProt Q9NWZ3+Q96SW2); experiment: PROTAC activity at CRBN/IRAK4 in human THP-1 cells assessed as induction of IRAK4 degradation incubated for 24 hrs by HiBiT lytic reagent based analysis; type: cell-based
Target sequence in this assay (Q9NWZ3 whole entry): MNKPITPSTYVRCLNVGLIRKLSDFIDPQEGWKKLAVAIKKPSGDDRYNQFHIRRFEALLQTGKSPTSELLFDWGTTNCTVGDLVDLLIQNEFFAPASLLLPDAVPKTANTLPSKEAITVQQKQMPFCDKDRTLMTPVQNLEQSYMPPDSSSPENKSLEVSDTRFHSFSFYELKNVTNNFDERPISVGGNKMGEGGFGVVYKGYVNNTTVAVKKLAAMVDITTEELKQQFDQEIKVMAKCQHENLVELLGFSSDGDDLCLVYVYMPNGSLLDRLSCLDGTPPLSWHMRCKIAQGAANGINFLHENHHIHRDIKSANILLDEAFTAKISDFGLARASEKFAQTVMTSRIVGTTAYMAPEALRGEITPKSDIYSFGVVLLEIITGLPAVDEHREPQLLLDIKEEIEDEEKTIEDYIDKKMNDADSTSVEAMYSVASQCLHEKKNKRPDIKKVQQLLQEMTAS
Target sequence in this assay (Q96SW2 whole entry): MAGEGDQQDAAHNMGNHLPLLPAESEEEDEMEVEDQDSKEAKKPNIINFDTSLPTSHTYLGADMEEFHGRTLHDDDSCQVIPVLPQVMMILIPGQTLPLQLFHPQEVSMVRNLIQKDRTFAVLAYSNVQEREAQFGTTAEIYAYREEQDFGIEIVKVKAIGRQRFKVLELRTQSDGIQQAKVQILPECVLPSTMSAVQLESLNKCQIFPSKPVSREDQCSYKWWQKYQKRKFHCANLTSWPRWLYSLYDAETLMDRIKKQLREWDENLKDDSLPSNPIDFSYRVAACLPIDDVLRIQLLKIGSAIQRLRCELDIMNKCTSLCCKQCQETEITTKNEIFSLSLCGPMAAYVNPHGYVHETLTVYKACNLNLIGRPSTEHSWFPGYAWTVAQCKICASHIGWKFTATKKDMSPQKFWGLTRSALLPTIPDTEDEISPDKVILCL

[2] = molecular target: T1, Protein cereblon/Interleukin-1 receptor-associated kinase 4; experiment: PROTAC activity at CRBN/IRAK4 in human THP-1 cells assessed as induction of IRAK4 degradation incubated for 24 hrs by HiBiT lytic reagent based analysis relative to control; type: cell-based
Target sequence in this assay (Q96SW2 whole entry, looked up): as the sequence (Q96SW2 whole entry) above
Target sequence in this assay (Q9NWZ3 whole entry, looked up): as the sequence (Q9NWZ3 whole entry) above

[3] = molecular target: Voltage-gated inwardly rectifying potassium channel KCNH2 (Homo sapiens, UniProt Q12809); experiment: Inhibition of hERG expressed in HEK293 cells by manual patch clamp assay; type: toxicity, cell-based; parameters: concentration or dose not given beside the values
Mus musculus = experiment: Anti-arthritic activity against collagen-induced arthritis DBA/1 mouse model assessed as reduction in pathological score at 30 mg/kg, po administered for 14 days; type: functional, organism-based; conditions: time 14.0 day
[4] = Metabolic stability in human liver microsome assessed as half life at 1 uM measured up to 60 mins in presence of NADPH by LC-MS/MS analysis; type: ADME; conditions: liver microsomes
[5] = Metabolic stability in dog liver microsome assessed as half life at 1 uM measured up to 60 mins in presence of NADPH by LC-MS/MS analysis; type: ADME, Canis lupus familiaris; conditions: liver microsomes
[6] = Metabolic stability in cynomolgus monkey liver microsome assessed as half life at 1 uM measured up to 60 mins in presence of NADPH by LC-MS/MS analysis; type: ADME, Macaca fascicularis; conditions: liver microsomes
[7] = Metabolic stability in mouse liver microsome assessed as half life at 1 uM measured up to 60 mins in presence of NADPH by LC-MS/MS analysis; type: ADME; conditions: liver microsomes
hERG (KCNH2) [8] = molecular target: T2, hERG (KCNH2) (Homo sapiens, UniProt Q12809); experiment: Inhibition of hERG expressed in HEK293 cells at 3 uM by manual patch clamp assay relative to control; type: toxicity, cell-based; conditions: HEK293 cells expressing hERG
[9] = Metabolic stability in rat liver microsome assessed as half life at 1 uM measured up to 60 mins in presence of NADPH by LC-MS/MS analysis; type: ADME; conditions: liver microsomes
[10] = AUClast in Sprague-Dawley rat at 2 mg/kg, iv measured up to 24 hrs by LC-MS/MS analysis; type: ADME, organism-based; conditions: in vivo
[11] = Tmax in Sprague-Dawley rat at 10 mg/kg, po measured up to 24 hrs by LC-MS/MS analysis; type: ADME, organism-based; conditions: in vivo
[12] = Oral bioavailability in Sprague-Dawley rat at 10 mg/kg measured up to 24 hrs by LC-MS/MS analysis; type: ADME, organism-based; conditions: in vivo
[13] = Volume of distribution at steady state in male C57BL/6 mouse at 2 mg/kg, iv measured up to 24 hrs by LC-MS/MS analysis; type: ADME, organism-based; conditions: in vivo, read-out: Vdss
[14] = AUClast in Sprague-Dawley rat at 10 mg/kg, po measured up to 24 hrs by LC-MS/MS analysis; type: ADME, organism-based; conditions: in vivo
hERG (KCNH2) [15] = molecular target: T2, hERG (KCNH2); experiment: Inhibition of hERG expressed in HEK293 cells at 1 uM by manual patch clamp assay relative to control; type: toxicity, cell-based; conditions: HEK293 cells expressing hERG
[16] = Cmax in Sprague-Dawley rat at 2 mg/kg, iv measured up to 24 hrs by LC-MS/MS analysis; type: ADME, organism-based; conditions: in vivo
[17] = Half life in Sprague-Dawley rat at 2 mg/kg, iv measured up to 24 hrs by LC-MS/MS analysis; type: ADME, organism-based; conditions: in vivo
[18] = Cmax in Sprague-Dawley rat at 10 mg/kg, po measured up to 24 hrs by LC-MS/MS analysis; type: ADME, organism-based; conditions: in vivo
[19] = Volume of distribution at steady state in Sprague-Dawley rat at 2 mg/kg, iv measured up to 24 hrs by LC-MS/MS analysis; type: ADME, organism-based; conditions: in vivo, read-out: Vdss
[20] = Clearance in male C57BL/6 mouse at 2 mg/kg, iv measured up to 24 hrs by LC-MS/MS analysis; type: ADME, organism-based; conditions: in vivo
[21] = Tmax in male C57BL/6 mouse at 10 mg/kg, po measured up to 24 hrs by LC-MS/MS analysis; type: ADME, organism-based; conditions: in vivo
[22] = Cmax in male C57BL/6 mouse at 2 mg/kg, iv measured up to 24 hrs by LC-MS/MS analysis; type: ADME, organism-based; conditions: in vivo
[23] = Oral bioavailability in male C57BL/6 mouse at 10 mg/kg measured up to 24 hrs by LC-MS/MS analysis; type: ADME, organism-based; conditions: in vivo
[24] = AUClast in male C57BL/6 mouse at 10 mg/kg, po measured up to 24 hrs by LC-MS/MS analysis; type: ADME, organism-based; conditions: in vivo
[25] = Half life in male C57BL/6 mouse at 2 mg/kg, iv measured up to 24 hrs by LC-MS/MS analysis; type: ADME, organism-based; conditions: in vivo
[26] = AUClast in male C57BL/6 mouse at 2 mg/kg, iv measured up to 24 hrs by LC-MS/MS analysis; type: ADME, organism-based; conditions: in vivo
[27] = Cmax in male C57BL/6 mouse at 10 mg/kg, po measured up to 24 hrs by LC-MS/MS analysis; type: ADME, organism-based; conditions: in vivo
[28] = Half life in male C57BL/6 mouse at 10 mg/kg, po measured up to 24 hrs by LC-MS/MS analysis; type: ADME, organism-based; conditions: in vivo
[29] = Half life in Sprague-Dawley rat at 10 mg/kg, po measured up to 24 hrs by LC-MS/MS analysis; type: ADME, organism-based; conditions: in vivo
[30] = Clearance in Sprague-Dawley rat at 2 mg/kg, iv measured up to 24 hrs by LC-MS/MS analysis; type: ADME, organism-based; conditions: in vivo

T2 sequence (Q12809 whole entry): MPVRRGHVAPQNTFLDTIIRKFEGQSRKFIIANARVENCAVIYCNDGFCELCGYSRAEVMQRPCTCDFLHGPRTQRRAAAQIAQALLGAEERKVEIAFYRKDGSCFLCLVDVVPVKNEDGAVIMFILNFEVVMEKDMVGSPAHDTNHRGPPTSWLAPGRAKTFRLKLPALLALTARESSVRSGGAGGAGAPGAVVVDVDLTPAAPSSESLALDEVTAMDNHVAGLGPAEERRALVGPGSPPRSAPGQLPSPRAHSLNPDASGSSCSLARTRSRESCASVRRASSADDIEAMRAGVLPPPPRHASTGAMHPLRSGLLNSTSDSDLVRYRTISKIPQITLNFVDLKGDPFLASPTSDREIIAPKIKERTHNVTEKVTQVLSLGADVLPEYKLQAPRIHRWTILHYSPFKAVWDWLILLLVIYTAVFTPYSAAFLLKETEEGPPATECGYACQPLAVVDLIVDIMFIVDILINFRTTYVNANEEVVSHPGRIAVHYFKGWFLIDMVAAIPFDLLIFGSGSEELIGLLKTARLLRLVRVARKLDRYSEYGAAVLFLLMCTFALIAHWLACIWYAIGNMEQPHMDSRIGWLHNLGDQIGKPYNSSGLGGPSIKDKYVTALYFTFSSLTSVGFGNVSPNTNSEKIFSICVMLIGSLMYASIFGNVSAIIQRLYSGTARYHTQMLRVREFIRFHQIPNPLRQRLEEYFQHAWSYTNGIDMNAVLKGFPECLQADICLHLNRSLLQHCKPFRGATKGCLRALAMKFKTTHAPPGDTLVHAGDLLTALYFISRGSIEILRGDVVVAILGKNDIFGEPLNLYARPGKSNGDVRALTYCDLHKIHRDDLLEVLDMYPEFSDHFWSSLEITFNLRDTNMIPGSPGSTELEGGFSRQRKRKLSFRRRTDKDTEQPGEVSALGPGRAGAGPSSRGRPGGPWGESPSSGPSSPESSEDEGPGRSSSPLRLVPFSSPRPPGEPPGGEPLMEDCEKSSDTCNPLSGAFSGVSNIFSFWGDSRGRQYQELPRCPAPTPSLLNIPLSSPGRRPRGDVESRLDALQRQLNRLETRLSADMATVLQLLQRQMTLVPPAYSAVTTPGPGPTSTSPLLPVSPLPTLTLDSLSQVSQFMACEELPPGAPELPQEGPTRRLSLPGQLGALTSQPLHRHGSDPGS
Sequence of Voltage-gated inwardly rectifying potassium channel KCNH2 (Q12809 whole entry): as above

| DC50 [1] [nM] | Emax [2] [%] | half-life at 1 µM [4] [h] | half-life at 1 µM [5] [h] | half-life at 1 µM [6] [h] | half-life at 1 µM [7] [h] | half-life at 1 µM [9] [h] | Vd [13] [L/kg] | clearance [20] [mL/min/kg] | Tmax [21] [h] | Cmax [22] [ng/mL] | bioavailability [23] [%] | AUC(0-t) at 24 h [24] [ng·h/mL] | half-life [25] [h] | AUC(0-t) at 24 h [26] [ng·h/mL] | Cmax [27] [ng/mL] | half-life [28] [h] | Structure (SMILES) | inhibition (INH) [3] [%] | further results |
| --- | --- | --- | --- | --- | --- | --- | --- | --- | --- | --- | --- | --- | --- | --- | --- | --- | --- | --- | --- |
| 1.86 | 68 | – | – | – | – | – | – | – | – | – | – | – | – | – | – | – | Cn1c(=O)n(C2CCC(=O)NC2=O)c2cccc(CCCOCCNCCN3CCC4(CC3)Cc3cc(NC(=O)c5cnn6cccnc56)c(N5CCC(CO)CC5)cc3O4)c21 (configuration not stated) | 2 | – |
| 1.66 | 95 | – | – | – | – | – | – | – | – | – | – | – | – | – | – | – | Cn1c(=O)n(C2CCC(=O)NC2=O)c2cccc(CN3CC4(CCN(CCN5CCC6(CC5)Cc5cc(NC(=O)c7cnn8cccnc78)c(N7CCC(CO)CC7)cc5O6)CC4)C3)c21 (configuration not stated) | 6 | – |
| 1.53 | 95 | 0.833 | > 3.07 | 1.17 | 0.65 | 0.7 | – | – | – | – | – | – | – | – | – | – | Cn1c(=O)n(C2CCC(=O)NC2=O)c2cccc(CN3CCC4(CC3)CN(CCN3CCC5(CC3)Cc3cc(NC(=O)c6cnn7cccnc67)c(N6CCC(CO)CC6)cc3O5)C4)c21 (configuration not stated) | 34 | – |
| 1.09 | 92 | 0.733 | 1.55 | 0.217 | 1.1 | 0.817 | – | – | – | – | – | – | – | – | – | – | Cn1c(=O)n(C2CCC(=O)NC2=O)c2cccc(CN3CCC(CCN4CCC5(CC4)Cc4cc(NC(=O)c6cnn7cccnc67)c(N6CCC(CO)CC6)cc4O5)CC3)c21 (configuration not stated) | 28 | – |

More lines, now with the values behind:

| Structure (SMILES) | DC50 [1] [nM] | Emax [2] [%] | half-life at 1 µM [4] [h] | half-life at 1 µM [5] [h] | half-life at 1 µM [6] [h] | half-life at 1 µM [7] [h] | half-life at 1 µM [9] [h] | Vd [13] [L/kg] | clearance [20] [mL/min/kg] | Tmax [21] [h] | Cmax [22] [ng/mL] | bioavailability [23] [%] | AUC(0-t) at 24 h [24] [ng·h/mL] | half-life [25] [h] | AUC(0-t) at 24 h [26] [ng·h/mL] | Cmax [27] [ng/mL] | half-life [28] [h] | inhibition (INH) [3] [%] | further results |
| --- | --- | --- | --- | --- | --- | --- | --- | --- | --- | --- | --- | --- | --- | --- | --- | --- | --- | --- | --- |
| Cn1c(=O)n(C2CCC(=O)NC2=O)c2cccc(C#CCOCCNCCN3CCC4(CC3)Cc3cc(NC(=O)c5cnn6cccnc56)c(N5CCC(CO)CC5)cc3O4)c21 (configuration not stated) | 1.17 | 89 | – | – | – | – | – | – | – | – | – | – | – | – | – | – | – | 8 | – |
| C[C@@H]1CCN(C(=O)CC#N)C[C@@H]1N(C)c1ncnc2[nH]ccc12 | – | – | – | – | – | – | – | – | – | – | – | – | – | – | – | – | – | – | Activity (Mus musculus): Active |
| Cn1c(=O)n(C2CCC(=O)NC2=O)c2cccc(C#CCO[C@H]3CC[C@H](CN4CCC5(CC4)Cc4cc(NC(=O)c6cnn7cc(C#N)cnc67)c(N6CCC(CO)CC6)cc4O5)CC3)c21 (some centres not stated) | 2.81 | 89 | > 3.07 | > 3.07 | 1.07 | 1.98 | 2.45 | – | – | – | – | – | – | – | – | – | – | – | inhibition at 3 µM (hERG (KCNH2) [8]): 29% |
| Cn1c(=O)n(C2CCC(=O)NC2=O)c2cccc(C#CCO[C@H]3CC[C@H](CN4CCC5(CC4)Cc4cc(NC(=O)c6cnn7cccnc67)c(N6CCC(CO)CC6)cc4O5)CC3)c21 (some centres not stated) | 2.65 | 90 | > 3.07 | > 3.07 | 2.33 | > 3.07 | > 3.07 | 0.94 | 4.67 | 2 | 2000 | 42 | 14800 | 2.69 | 7160 | 1540 | 3.7 | – | AUClast [10]: 2193 ng·h/mL; Tmax [11]: 6 h; F [12]: 11%; AUClast [14]: 3524 ng·h/mL; inhibition at 1 µM (hERG (KCNH2) [15]): 28%; Cmax [16]: 1030 ng/mL; half-life [17]: 3.94 h; Cmax [18]: 261 ng/mL; Vd [19]: 3.26 L/kg; half-life [29]: 3.58 h; clearance [30]: 15.1 mL/min/kg |
| Cn1c(=O)n(C2CCC(=O)NC2=O)c2cccc(C#CCO[C@H]3CC[C@H](CN4CCC5(CC4)Cc4cc(NC(=O)c6cnn7cc(F)cnc67)c(N6CCC(CO)CC6)cc4O5)CC3)c21 (some centres not stated) | 2.24 | 87 | > 3.07 | > 3.07 | – | > 3.07 | – | 0.96 | 2.83 | 4 | 1380 | 47 | 27000 | 4.07 | 11700 | 2280 | 4.27 | – | AUClast [10]: 424 ng·h/mL; Tmax [11]: 6 h; F [12]: 21%; AUClast [14]: 8344 ng·h/mL; inhibition at 1 µM (hERG (KCNH2) [15]): 36%; Cmax [16]: 243 ng/mL; half-life [17]: 3.14 h; Cmax [18]: 628 ng/mL; Vd [19]: 3.12 L/kg; half-life [29]: 2.94 h; clearance [30]: 12.4 mL/min/kg |
| Cn1c(=O)n(C2CCC(=O)NC2=O)c2cccc(C#CCO[C@H]3CC[C@H](CN4CCC5(CC4)Cc4cc(NC(=O)c6cnc7cccnn67)c(N6CCC(CO)CC6)cc4O5)CC3)c21 (some centres not stated) | 4.06 | 90 | > 3.07 | > 3.07 | – | > 3.07 | – | 1.66 | 9.75 | 2 | 1230 | 54 | 7390 | 9.75 | 3190 | 1190 | 4.4 | – | inhibition at 1 µM (hERG (KCNH2) [15]): 15% |
| Cn1c(=O)n(C2CCC(=O)NC2=O)c2cccc(C#CCO[C@H]3CC[C@H](CN4CCC5(CC4)Cc4cc(NC(=O)c6cnn7cccnc67)c(N6CCC(O)CC6)cc4O5)CC3)c21 (some centres not stated) | 1.37 | 87 | > 3.07 | > 3.07 | 1.07 | > 3.07 | > 3.07 | 0.6 | 2.44 | 4 | 2780 | 59 | 42100 | 2.76 | 14100 | 3490 | 3.82 | – | AUClast [10]: 1436 ng·h/mL; Tmax [11]: 8 h; F [12]: 15%; AUClast [14]: 3395 ng·h/mL; Cmax [16]: 696 ng/mL; half-life [17]: 2.42 h; Cmax [18]: 352 ng/mL; Vd [19]: 3.69 L/kg; inhibition at 3 µM (hERG (KCNH2) [8]): 35%; half-life [29]: 3.16 h; clearance [30]: 21.4 mL/min/kg |
